Active and inactive are the calls of the source. No rule for the calls is given here.
What was measured:
[1] = mammalian cell cytotoxicity, cytotoxicity control, set 3 (AID 504713); details: mammalian cell cytotoxicity, viability, CC50; at 100 µM (top of the series)
[2] = tested on: mammalian cell cytotoxicity, viability, CC50; test: as above

Structure (SMILES)	viability [1]	CC50 [2] [µM]
COc1cccc(NC(=S)Nc2cc(C)cc(C)n2)c1	100% (inactive)	–
O=C(Nc1nc2ccccc2[nH]1)c1ccc(Cl)c(Cl)c1	90.6% (inactive)	–
Cc1ccc2oc(/N=C(\N)NC(=O)c3ccccc3)nc2c1	–	35.1
CCOc1ccc2c(c1)c(C(C)=O)c(C)n2-c1ccccc1Cl	–	85.7
COc1ccc(C(=O)Nc2ccc3nc(N4CCCCC4)cc(C)c3c2)c(OC)c1	96.5% (inactive)	–
Cc1cc(C)c(OCC(=O)Nc2nc3ccccc3[nH]2)c(C)c1	88.5% (inactive)	–
O=C(CSc1n[nH]c(=O)n1C1CC1)c1ccc2c(c1)OCCO2	104% (inactive)	–
CC(=O)c1c(C)n(-c2cccc(Cl)c2)c2ccc(O)cc12	89% (inactive)	–
CC(=O)c1c(C)n(-c2ccccc2)c2ccc(O)cc12	85% (inactive)	–
c1ccc(-c2cc(N3CCOCC3)nc3ccccc23)cc1	–	90.8
N/C(=N\c1nc2ccccc2o1)NC(=O)C1CC1	83% (inactive)	–
COc1ccc2c(c1)cc(C)n2-c1ccccc1	92.9% (inactive)	–
CCOc1ccc2[nH]cc(C(=O)OC)c2c1	86.9% (inactive)	–
COc1ccc2c(c1)c(C(C)=O)c(C)n2-c1ccccc1	96.1% (inactive)	–
CCOc1ccc2nc(NC(=O)COc3ccc(F)cc3)sc2c1	103% (inactive)	–
Cc1cc(C)c(OCC(=O)Nc2nc3ccc(C)cc3s2)c(C)c1	97.6% (inactive)	–
CC(C)Cn1c2c(c(O)c(C(=O)Nc3nccs3)c1=O)CCCC2	100% (inactive)	–
O=C(Nc1ccccc1)Nc1csc2ccccc12	–	76.6
O=C(COc1ccc(Cl)cc1)Nc1nc2ccc(F)cc2s1	96.1% (inactive)	–
O=C(COc1cccc2ccccc12)Nc1nc2ccccc2s1	82.9% (inactive)	–
CCCN1CC(O)=C(c2nc3ccccc3s2)C1=N	88.5% (inactive)	–
CC(=O)c1c(C)n(-c2ccccc2)c2ccc(OS(=O)(=O)C(F)(F)F)cc12	92.2% (inactive)	–
CC(=O)c1c(C)n(-c2ccccc2C)c2ccc(O)cc12	95.5% (inactive)	–
Cc1ccc(OCC(=O)Nc2ccc(Cl)cc2)c(C)c1	97.9% (inactive)	–
Cc1cccnc1NC(=S)NC(=O)c1cncc(Br)c1	108% (inactive)	–
O=C(COC(=O)C1=COCCO1)Nc1ccc2c(c1)OCO2	94.5% (inactive)	–
Cc1cc2cc(O)ccc2[nH]1	103% (inactive)	–

Structure (SMILES)	viability [1]	CC50 [2] [µM]
Cc1ccccc1OCC(=O)Nc1ncccn1	106% (inactive)	–
Cc1onc(-c2c(Cl)cccc2Cl)c1/C(N)=N/OC(=O)C1CC1	107% (inactive)	–
CN(NC(=O)c1c(Cl)cccc1Cl)c1cccc(Cl)n1	93.6% (inactive)	–
CCOc1ccc2nc(NC(=O)COc3ccc(Cl)c(C)c3)sc2c1	112% (inactive)	–
CCOc1ccc2c(c1)c(C(C)=O)c(C)n2-c1ccccc1C	–	90.1
Cc1cc2cc(F)ccc2[nH]1	102% (inactive)	–
Cc1cc(C)c(OCC(=O)Nc2nc3ccccc3s2)c(Cl)c1	98.1% (inactive)	–
COc1cccc(NC(=O)C2CC2)c1	90.2% (inactive)	–
N/C(=N\c1nc2ccccc2o1)NC(=O)c1ccccc1F	99.9% (inactive)	–
Cc1ccc(OCC(=O)Nc2nnn(C)n2)c(C)c1	103% (inactive)	–
COc1ccc2nc(NC(=O)COc3c(C)cc(C)cc3C)sc2c1	94.5% (inactive)	–
O=C(O)CCC(=O)Nc1nc2ccccc2s1	102% (inactive)	–
Oc1ccc2[nH]ccc2c1	106% (inactive)	–
COc1ccc2nc(NC(=O)c3oc4ccccc4c3C)sc2c1	94.4% (inactive)	–
N/C(=N\c1nc2ccccc2o1)NC(=O)c1ccccc1Br	87% (inactive)	–
O=C(Nc1nc2ccccc2[nH]1)c1cc2cc(Br)ccc2o1	–	41.7
CCOc1ccc2nc(NC(=O)c3cnccn3)sc2c1	80.3% (inactive)	–
O=C(CC12CC3CC(CC(C3)C1)C2)NCc1ccc(F)cc1	99.1% (inactive)	–
Cc1ccc(OCC(=O)Nc2cccc3c(NC(=O)COc4ccc(C)cc4C)cccc23)c(C)c1	100% (inactive)	–
Cc1ccc(OCC(=O)Nc2ccc3c4c(cccc24)CC3)c(C)c1	80.3% (inactive)	–
CCCOc1ccc2c(c1)c(C(C)=O)c(C)n2-c1ccccc1	97.2% (inactive)	–
Cc1ccccc1OCC(=O)Nc1nnn(C)n1	95.7% (inactive)	–
CCOc1ccc2nc(NC(=O)COc3ccccc3)sc2c1	86% (inactive)	–
Cc1cc2ccccc2n1-c1ccccc1	93.4% (inactive)	–
Cc1cccc(C)c1OCC(=O)Nc1nc2ccccc2s1	93.4% (inactive)	–
CC(Oc1ccc(Cl)cc1)C(=O)Nc1nc2ccccc2s1 (stereo not drawn)	–	92
